In PubChem BioAssay (NCI):
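All cell lines were grown in 96-well plates and treated with compound for 48 hours. At the GI50, growth is halved. TGI denotes the concentration required for complete inhibition of growth.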

Columns and labels:
Experiment in all cases: NCI tumour cell line growth inhibition, 48 h
HCT-15 colon = test system: HCT-15 colon
SF-268 CNS = test system: SF-268 CNS
OVCAR-5 ovarian = test system: OVCAR-5 ovarian
NCI-H460 lung = test system: NCI-H460 lung
ACHN renal = test system: ACHN renal
HS 578T breast = test system: HS 578T breast
NCI-H522 lung = test system: NCI-H522 lung
MCF7 breast = test system: MCF7 breast
A549 NSCLC = test system: A549 NSCLC
SNB-19 CNS = test system: SNB-19 CNS
UACC-62 melanoma = test system: UACC-62 melanoma
UACC-257 melanoma = test system: UACC-257 melanoma
OVCAR-8 ovarian = test system: OVCAR-8 ovarian
NCI/ADR-RES ovarian = test system: NCI/ADR-RES ovarian
A498 renal = test system: A498 renal
LOX IMVI melanoma = test system: LOX IMVI melanoma
SK-MEL-5 melanoma = test system: SK-MEL-5 melanoma
SNB-75 CNS = test system: SNB-75 CNS
DU-145 prostate = test system: DU-145 prostate
CAKI-1 renal = test system: CAKI-1 renal
EKVX NSCLC = test system: EKVX NSCLC
MALME-3M melanoma = test system: MALME-3M melanoma
IGROV1 ovarian = test system: IGROV1 ovarian
RPMI-8226 leukemia = test system: RPMI-8226 leukemia
HCT-116 colon = test system: HCT-116 colon
SK-OV-3 ovarian = test system: SK-OV-3 ovarian
OVCAR-3 ovarian = test system: OVCAR-3 ovarian
M14 melanoma = test system: M14 melanoma
COLO 205 colon = test system: COLO 205 colon
T-47D breast = test system: T-47D breast
OVCAR-4 ovarian = test system: OVCAR-4 ovarian
HOP-92 NSCLC = test system: HOP-92 NSCLC
SF-539 CNS = test system: SF-539 CNS
BT-549 breast = test system: BT-549 breast
SR leukemia = test system: SR leukemia
SK-MEL-2 melanoma = test system: SK-MEL-2 melanoma
UO-31 renal = test system: UO-31 renal
HL-60(TB) leukemia = test system: HL-60(TB) leukemia
MDA-MB-435 = test system: MDA-MB-435
NCI-H23 lung = test system: NCI-H23 lung
HCC-2998 colon = test system: HCC-2998 colon
HOP-62 NSCLC = test system: HOP-62 NSCLC
PC-3 prostate = test system: PC-3 prostate
786-0 renal = test system: 786-0 renal
HT29 colon = test system: HT29 colon
U251 CNS = test system: U251 CNS
NCI-H226 lung = test system: NCI-H226 lung
MDA-MB-231 breast = test system: MDA-MB-231 breast
KM12 colon = test system: KM12 colon
RXF 393 renal = test system: RXF 393 renal
SK-MEL-28 melanoma = test system: SK-MEL-28 melanoma
SW-620 colon = test system: SW-620 colon
SF-295 CNS = test system: SF-295 CNS
SN12C renal = test system: SN12C renal
K-562 leukemia = test system: K-562 leukemia
MOLT-4 leukemia = test system: MOLT-4 leukemia
TK-10 renal = test system: TK-10 renal
CCRF-CEM leukemia = test system: CCRF-CEM leukemia

CCCCCCCCCCCCOC1C(C(COC2OC(C(O)CN3CCCCC3)C3OC(C)(C)OC23)NC(=O)Nc2ccccc2)OC2OC(C)(C)OC21 (stereo unspecified)
GI50 (HCT-15 colon): 8.6 µM | TGI (HCT-15 colon): 24.3 µM | GI50 (SF-268 CNS): 10.3 µM | TGI (SF-268 CNS): 25.4 µM | GI50 (OVCAR-5 ovarian): 18.5 µM | TGI (OVCAR-5 ovarian): 34.3 µM | GI50 (NCI-H460 lung): 4.52 µM | TGI (NCI-H460 lung): 16.9 µM | GI50 (ACHN renal): 17.3 µM | TGI (ACHN renal): 34.5 µM | GI50 (HS 578T breast): 8.75 µM | TGI (HS 578T breast): 23.6 µM | GI50 (NCI-H522 lung): 17.5 µM | TGI (NCI-H522 lung): 48 µM | GI50 (MCF7 breast): 3.16 µM | TGI (MCF7 breast): 10.6 µM | GI50 (A549 NSCLC): 11.4 µM | TGI (A549 NSCLC): 38 µM | GI50 (SNB-19 CNS): 18.2 µM | TGI (SNB-19 CNS): 44.5 µM | GI50 (UACC-62 melanoma): 15.9 µM | TGI (UACC-62 melanoma): 31 µM | GI50 (UACC-257 melanoma): 19.3 µM | TGI (UACC-257 melanoma): 38 µM | GI50 (OVCAR-8 ovarian): 15.5 µM | TGI (OVCAR-8 ovarian): 39.7 µM | GI50 (NCI/ADR-RES ovarian): 15.3 µM | TGI (NCI/ADR-RES ovarian): 33.3 µM | GI50 (A498 renal): 16.9 µM | TGI (A498 renal): 32.7 µM | GI50 (LOX IMVI melanoma): 7.87 µM | TGI (LOX IMVI melanoma): 26.1 µM | GI50 (SK-MEL-5 melanoma): 8.66 µM | TGI (SK-MEL-5 melanoma): 21.7 µM | GI50 (SNB-75 CNS): 13.6 µM | TGI (SNB-75 CNS): 29.8 µM | GI50 (DU-145 prostate): 11.9 µM | TGI (DU-145 prostate): 25.7 µM | GI50 (CAKI-1 renal): 17.7 µM | TGI (CAKI-1 renal): 35.7 µM | GI50 (EKVX NSCLC): 14.4 µM | TGI (EKVX NSCLC): 30.2 µM | GI50 (MALME-3M melanoma): 10.1 µM | TGI (MALME-3M melanoma): 22.2 µM | GI50 (IGROV1 ovarian): 16.9 µM | TGI (IGROV1 ovarian): 39.5 µM | GI50 (RPMI-8226 leukemia): 5.32 µM | TGI (RPMI-8226 leukemia): 15.3 µM | GI50 (HCT-116 colon): 4.54 µM | TGI (HCT-116 colon): 12.7 µM | GI50 (SK-OV-3 ovarian): 20.4 µM | TGI (SK-OV-3 ovarian): 44.1 µM | GI50 (OVCAR-3 ovarian): 14.7 µM | TGI (OVCAR-3 ovarian): 34.6 µM | GI50 (M14 melanoma): 7.75 µM | TGI (M14 melanoma): 19.4 µM | GI50 (COLO 205 colon): 3.86 µM | TGI (COLO 205 colon): 16.8 µM | GI50 (T-47D breast): 14.5 µM | TGI (T-47D breast): 37.8 µM | GI50 (OVCAR-4 ovarian): 9.48 µM | TGI (OVCAR-4 ovarian): 27.3 µM | GI50 (HOP-92 NSCLC): 6.86 µM | TGI (HOP-92 NSCLC): 19.7 µM | GI50 (SF-539 CNS): 16.6 µM | TGI (SF-539 CNS): 31.4 µM | GI50 (BT-549 breast): 14.9 µM | TGI (BT-549 breast): 29.5 µM | GI50 (SR leukemia): 1.91 µM | TGI (SR leukemia): 4.3 µM | GI50 (SK-MEL-2 melanoma): 19.6 µM | TGI (SK-MEL-2 melanoma): 41.6 µM | GI50 (UO-31 renal): 10.3 µM | TGI (UO-31 renal): 28.2 µM | GI50 (HL-60(TB) leukemia): 3.96 µM | TGI (HL-60(TB) leukemia): 11.3 µM | GI50 (MDA-MB-435): 7.02 µM | TGI (MDA-MB-435): 20.8 µM | GI50 (NCI-H23 lung): 17.9 µM | TGI (NCI-H23 lung): 37.1 µM | GI50 (HCC-2998 colon): 4.61 µM | TGI (HCC-2998 colon): 9.97 µM | GI50 (HOP-62 NSCLC): 16.1 µM | TGI (HOP-62 NSCLC): 32.9 µM | GI50 (PC-3 prostate): 10.7 µM | TGI (PC-3 prostate): 24.9 µM | GI50 (786-0 renal): 14.1 µM | TGI (786-0 renal): 30.5 µM | GI50 (HT29 colon): 2 µM | TGI (HT29 colon): 4.73 µM | GI50 (U251 CNS): 9.46 µM | TGI (U251 CNS): 27.2 µM | GI50 (NCI-H226 lung): 17 µM | TGI (NCI-H226 lung): 38.1 µM | GI50 (MDA-MB-231 breast): 12.8 µM | TGI (MDA-MB-231 breast): 27.4 µM | GI50 (KM12 colon): 7.06 µM | TGI (KM12 colon): 18.7 µM | GI50 (RXF 393 renal): 6.03 µM | TGI (RXF 393 renal): 26.1 µM | GI50 (SK-MEL-28 melanoma): 7.89 µM | TGI (SK-MEL-28 melanoma): 15.3 µM | GI50 (SW-620 colon): 4.11 µM | TGI (SW-620 colon): 14.7 µM | GI50 (SF-295 CNS): 15.3 µM | TGI (SF-295 CNS): 31.7 µM | GI50 (SN12C renal): 16 µM | TGI (SN12C renal): 33.2 µM | GI50 (K-562 leukemia): 2.06 µM | TGI (K-562 leukemia): 5.65 µM | GI50 (MOLT-4 leukemia): 1.29 µM | TGI (MOLT-4 leukemia): 5.54 µM | GI50 (TK-10 renal): 10.2 µM | TGI (TK-10 renal): 26 µM | GI50 (CCRF-CEM leukemia): 0.863 µM | TGI (CCRF-CEM leukemia): 2.23 µM
